For one assay, the system named is human neutrophils. As to the kind of experiment: Human neutrophil migration assay. The class given is cell-based. To be noted: Homo sapiens, Neutrophil, read-out: Human neutrophil migration IC50. Here is the method: The activity of GPR84 agonists and antagonists can therefore be assayed in a human neutrophil migration assay. The human neutrophil migration assay makes use of freshly isolated human neutrophils from buffy coats that are subsequently used in a functional chemotaxis assay setup. […] After 1 h of incubation at 37° C. and 5% CO2, the number of migrated neutrophils in the lower compartment can be quantified by measuring the ATP content using ATPlite™ Luminescence Assay System. A human buffy coat suspension is diluted with an equal volume of ice cold DPBS. 20 mL of the diluted buffy coat suspension is gently mixed with 4 mL of ACD buffer (140 mM citric acid, 200 mM sodium citrate and 220 mM dextrose). Then, 12 mL of a 6% dextran/0.9% NaCl solution (15 g dextran T2000 and 2.25 g NaCl dissolved in 250 mL H2O) is added to the mixture and the samples are inverted gently up to 20 times. The total volume is transferred to a new recipient and incubated at room temperature to allow sedimentation of red blood cells. The yellowish upper fraction is then transferred to a clean centrifugation tube and centrifuged for 12 min at 1300 rpm and 4° C. After centrifugation, the supernatant is discarded and the remaining cell pellet is rapidly resuspended in 12 mL of ice-cold H2O to perform a red blood cell lysis by osmotic burst. After 20 seconds, 4 mL of ice-cold 0.6 M KCl is added to restore salt concentration. Samples are mixed carefully and centrifuged for 6 min at 1300 rpm and 4° C. The supernatant is discarded and the red blood cell lysis procedure is repeated one more time. […] A neutrophil cell suspension of 8.9×10^6 cells per mL is prepared in chemotaxis buffer and 180 μL per well is plated in a 96-well V-bottom plate. 20 μL of test compound solution in chemotaxis buffer is added to the 180 μL cell suspension. The mixture is incubated at room temperature for 30 min with intermediate gentle resuspension of the cells after 15 min. […] After 1 h at 37° C., 5% CO2 in a humidified incubator, the upper plate of the Transwell® system is gently removed. […] After incubation, 270 μL of cell lysate is then transferred onto a white 96-well plate for quantification by a luminescence plate reader. The relative luminescent signal measured is considered linearly related to the number of cells having migrated from the upper compartment into the receiver well.

For a further assay, the target named is T1, GPR84 (Homo sapiens, UniProt Q9NQS5).
T1 construct: expressed in transfected cells
T1 sequence (Q9NQS5 whole entry): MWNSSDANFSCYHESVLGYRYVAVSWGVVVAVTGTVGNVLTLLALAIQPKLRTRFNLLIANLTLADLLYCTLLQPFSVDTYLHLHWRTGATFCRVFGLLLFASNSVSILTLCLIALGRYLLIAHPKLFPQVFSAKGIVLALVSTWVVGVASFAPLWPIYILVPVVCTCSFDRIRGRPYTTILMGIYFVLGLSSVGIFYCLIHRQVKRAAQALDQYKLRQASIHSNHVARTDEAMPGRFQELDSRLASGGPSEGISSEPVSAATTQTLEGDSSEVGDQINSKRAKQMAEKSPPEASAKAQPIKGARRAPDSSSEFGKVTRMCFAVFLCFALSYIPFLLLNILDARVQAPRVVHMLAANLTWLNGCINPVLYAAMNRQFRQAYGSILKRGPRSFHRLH
Nature of the assay: GPR84 [35S]GTPγS binding assay. The class given is biochemical. The note with it: 3,3′-diindolylmethane at EC80; membranes from stable cell line over expressing GPR84. A digest of the protocol: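 Antagonist-mode [35S]GTPγS binding on membranes from a GPR84-overexpressing stable line (GDP-preincubated), stimulated with 3,3′-diindolylmethane at EC80. Buffer 20 mM Tris pH 7.5, 5 mM MgCl2, 250 mM NaCl, saponin; 0.1 nM [35S]GTPγS, 90 min at room temperature, SPA bead read-out.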

Setting [1] is: embelin at EC80 as chemotactic agent, 1 h at 37° C.

Molecules are shown by their SMILES. Where two headings read alike, the source gives them in different places.

In the case of `COc1ccc2c(c1OC)CCn1c(OCC3CCCCO3)cc(=O)c(C)c1-2` (stereo not drawn) [Compound 29, 8,9-dimethoxy-1-methyl-4-(tetrahydropyran-2-ylmethoxy)-6,7-dihydrobenzo[b]quinolizin-2-one], the IC50 in the assay on human neutrophils (setting [1]) and on GPR84 was 0.01 to 100 nM each time.
As to `Cc1c2n(c(OC[C@@H]3COCCO3)cc1=O)CCc1cc(OCC3CCOCC3)ccc1-2` [Compound 30, 4-[[(2S)-1,4-dioxan-2-yl]methoxy]-1-methyl-9-(tetrahydropyran-4-ylmethoxy)-6,7-dihydrobenzo[b]quinolizin-2-one], the IC50 in the assay on human neutrophils (setting [1]) and on GPR84 was 0.01 to 100 nM throughout.
On to `Cc1c2n(c(OC[C@@H]3COCCO3)cc1=O)CCc1cc(OCc3ccccn3)ccc1-2` [Compound 31, 4-[[(2S)-1,4-dioxan-2-yl]methoxy]-1-methyl-9-(2-pyridylmethoxy)-6,7-dihydrobenzo[b]quinolizin-2-one], for which the IC50 in the assay on human neutrophils (setting [1]) and on GPR84 was 0.01 to 100 nM throughout.
Consider `Cc1c2n(c(OC[C@@H]3COCCO3)cc1=O)CCc1cc(OCc3cccc(OC(F)(F)F)c3)ccc1-2` [Compound 32, 4-[[(2S)-1,4-dioxan-2-yl]methoxy]-1-methyl-9-[[3-(trifluoromethoxy)phenyl]methoxy]-6,7-dihydrobenzo[a]quinolizin-2-one], for which the IC50 with human neutrophils (setting [1]) and at GPR84 was 0.01 to 100 nM throughout.
As to `Cc1c2n(c(OC[C@@H]3COCCO3)cc1=O)CCc1cc(OCc3ccccc3)ccc1-2` [Compound 33, 9-benzyloxy-4-[[(2S)-1,4-dioxan-2-yl]methoxy]-1-methyl-6,7-dihydrobenzo[a]quinolizin-2-one], the IC50 in the assay with human neutrophils (setting [1]) and at GPR84 was 0.01 to 100 nM each time.
In the case of `Cc1c2n(c(NC[C@@H]3COCCO3)cc1=O)CCc1cc(OCC(F)F)ccc1-2` [Compound 35, 9-(2,2-difluoroethoxy)-4-[[(2R)-1,4-dioxan-2-yl]methylamino]-1-methyl-6,7-dihydrobenzo[b]quinolizin-2-one], the IC50 with human neutrophils (setting [1]) was in the range of 0.01 to 100 nM; at GPR84, 100 to 500 nM.
For `Cc1c2n(c(NC[C@@H]3COCCO3)cc1=O)CCc1cc(OCC(F)(F)F)ccc1-2` [Compound 36, 4-[[(2R)-1,4-dioxan-2-yl]methylamino]-1-mehtyl-9-(2,2,2-trifluoroethoxy)-6,7-dihydrobenzo[a]quinolizin-2-one], the figures for the IC50 in the assay on human neutrophils (setting [1]) and on GPR84 were 100 to 500 nM and 0.01 to 100 nM, respectively.
`Cc1c2n(c(OC[C@@H]3COCCO3)cc1=O)CCc1cc(OS(=O)(=O)C(F)(F)F)ccc1-2` [Compound 37, [4-[[(2S)-1,4-dioxan-2-yl]methoxy]-1-methyl-2-oxo-6,7-dihydrobenzo[a]quinolizin-9-yl] trifluoromethanesulfonate]: the IC50 in the assay on human neutrophils (setting [1]) and on GPR84 was 0.01 to 100 nM throughout.
Consider `Cc1c2n(c(OC[C@@H]3COCCO3)cc1=O)CCc1cc(OCc3cnn(C)c3)ccc1-2` [Compound 38, 4-[[(2S)-1,4-dioxan-2-yl]methoxy]-1-methyl-9-[(1-methylpyrazol-4-yl)methoxy]-6,7-dihydrobenzo[a]quinolizin-2-one], for which the IC50 in the assay on human neutrophils (setting [1]) was 100 to 500 nM; at GPR84 it was 0.01 to 100 nM.
On the same counts, the results for `Cc1c2n(c(OC[C@@H]3COCCO3)cc1=O)CCc1cc(C3=CCOCC3)ccc1-2` [Compound 39, 9-(3,6-dihydro-2H-pyran-4-yl)-4-[[(2S)-1,4-dioxan-2-yl]methoxy]-1-methyl-6,7-dihydrobenzo[a]quinolizin-2-one] are 0.01 to 100 nM and 100 to 500 nM.
For `CCn1cc(-c2ccc3c(c2)CCn2c(OC[C@@H]4COCCO4)cc(=O)c(C)c2-3)cn1` [Compound 40, 4-[[(2S)-1,4-dioxan-2-yl]methoxy]-9-(1-ethylpyrazol-4-yl)-1-methyl-6,7-dihydrobenzo[a]quinolizin-2-one], the IC50 in the assay on human neutrophils (1 h) and at GPR84 was 0.01 to 100 nM each time.
Turning to `Cc1c2n(c(OC[C@@H]3COCCO3)cc1=O)CCc1cc(C3CCOCC3)ccc1-2` [Compound 41, 4-[[(2S)-1,4-dioxan-2-yl]methoxy]-1-methyl-9-tetrahydropyran-4-yl-6,7-dihydrobenzo[a]quinolizin-2-one], the IC50 with human neutrophils (setting [1]) and at GPR84 was 0.01 to 100 nM in each case.
Take `Cc1c2n(c(NC[C@@H]3CCCO3)cc1=O)CCc1cc(OCC(F)(F)F)ccc1-2` [Compound 42, 1-methyl-4-[[(2S)-tetrahydrofuran-2-yl]methylamino]-9-(2,2,2-trifluoroethoxy)-6,7-dihydrobenzo[a]quinolizin-2-one]: the IC50 in the assay with human neutrophils (setting [1]) and on GPR84 was 0.01 to 100 nM throughout.
In the case of `Cc1noc(COc2ccc3c(c2)CCn2c(OCC4CCCO4)cc(=O)c(C)c2-3)n1` (stereo not drawn) [Compound 43, 1-methyl-9-[(3-methyl-1,2,4-oxadiazol-5-yl)methoxy]-4-(tetrahydrofuran-2-ylmethoxy)-6,7-dihydrobenzo[a]quinolizin-2-one], the IC50 in the assay on human neutrophils (setting [1]) and on GPR84 was 0.01 to 100 nM throughout.
Regarding `Cc1noc(COc2ccc3c(c2)CCn2c(OCC4CCCCO4)cc(=O)c(C)c2-3)n1` (stereo not drawn) [Compound 44, 1-methyl-9-[(3-methyl-1,2,4-oxadiazol-5-yl)methoxy]-4-(tetrahydropyran-2-ylmethoxy)-6,7-dihydrobenzo[a]quinolizin-2-one], the IC50 in the assay on human neutrophils (setting [1]) and at GPR84 was 0.01 to 100 nM in each case.
In the case of `Cc1c2n(c(OCC3CCCO3)cc1=O)CCc1cc(OCc3ccccn3)ccc1-2` (stereo not drawn) [Compound 45, 1-methyl-9-(2-pyridylmethoxy)-4-(tetrahydrofuran-2-ylmethoxy)-6,7-dihydrobenzo[a]quinolizin-2-one], the IC50 in the assay on human neutrophils (setting [1]) was 100 to 500 nM; on GPR84, 0.01 to 100 nM.
On the same counts, the results for `Cc1c2n(c(OCC3CCCCO3)cc1=O)CCc1cc(OCc3ccccn3)ccc1-2` (stereo not drawn) [Compound 46, 1-methyl-9-(2-pyridylmethoxy)-4-(tetrahydropyran-2-ylmethoxy)-6,7-dihydrobenzo[a]quinolizin-2-one] are 0.01 to 100 nM and 0.01 to 100 nM.
`Cc1c2n(c(OCC3CCCCO3)cc1=O)CCc1cc(OCC3CCCOC3)ccc1-2` (stereo not drawn) [Compound 48, 1-methyl-4-(tetrahydropyran-2-ylmethoxy)-9-(tetrahydropyran-3-ylmethoxy)-6,7-dihydrobenzo[a]quinolizin-2-one]: the IC50 with human neutrophils (setting [1]) and at GPR84 was 0.01 to 100 nM throughout.
In the case of `Cc1c2n(c(OC[C@@H]3COCCO3)cc1=O)CCc1cc(OCC3CCCOC3)ccc1-2` (stereo partly drawn) [Compound 49, 4-[[(2S)-1,4-dioxan-2-yl]methoxy]-1-methyl-9-(tetrahydropyran-3-ylmethoxy)-6,7-dihydrobenzo[a]quinolizin-2-one], the IC50 with human neutrophils (setting [1]) and on GPR84 was 0.01 to 100 nM throughout.
For `Cc1ccc(COc2ccc3c(c2)CCn2c(OCC4CCCO4)cc(=O)c(C)c2-3)cn1` (stereo not drawn) [Compound 50, 1-methyl-9-[(6-methyl-3-pyridyl)methoxy]-4-(tetrahydrofuran-2-ylmethoxy)-6,7-dihydrobenzo[a]quinolizin-2-one], the IC50 with human neutrophils (setting [1]) and on GPR84 was 0.01 to 100 nM throughout.
Regarding `Cc1ccc(COc2ccc3c(c2)CCn2c(OCC4CCCCO4)cc(=O)c(C)c2-3)cn1` (stereo not drawn) [Compound 51, 1-methyl-9-[(6-methyl-3-pyridyl)methoxy]-4-(tetrahydropyran-2-ylmethoxy)-6,7-dihydrobenzo[a]quinolizin-2-one], the IC50 in the assay on human neutrophils (setting [1]) and on GPR84 was 0.01 to 100 nM in each case.
Turning to `Cc1noc(COc2ccc3c(c2)CCn2c(OC[C@@H]4COCCO4)cc(=O)c(C)c2-3)n1` [Compound 58, 4-[[(2S)-1,4-dioxan-2-yl]methoxy]-1-methyl-9-[(3-methyl-1,2,4-oxadiazol-5-yl)methoxy]-6,7-dihydrobenzo[a]quinolizin-2-one], the IC50 in the assay with human neutrophils (setting [1]) and at GPR84 was 0.01 to 100 nM each time.
Take `Cc1c2n(c(OC[C@@H]3COCCO3)cc1=O)CCc1cc(OCC(F)F)ccc1-2` [Compound 61, 9-(2,2-difluoroethoxy)-4-[[(2S)-1,4-dioxan-2-yl]methoxy]-1-methyl-6,7-dihydrobenzo[a]quinolizin-2-one]: the IC50 in the assay on human neutrophils (setting [1]) and at GPR84 was 0.01 to 100 nM throughout.
Turning to `Cc1c2n(c(OC[C@@H]3COCCO3)cc1=O)CCc1cc(N3CCOCC3)ccc1-2` [Compound 63, 4-[[(2S)-1,4-dioxan-2-yl]methoxy]-1-methyl-9-morpholino-6,7-dihydrobenzo[a]quinolizin-2-one], the IC50 was 100 to 500 nM in the assay with human neutrophils (setting [1]) and 0.01 to 100 nM at GPR84.

The record behind these values is patent US10568879B2 (GALAPAGOS NV, priority 2015, dated 2020).
